Laboratory results published in ChEMBL document CHEMBL6182926, “Design, Synthesis, and Biological Activity Evaluation of Deuterated Diphenyl Azole Alcohol-Based CYP51 Inhibitors” (J Med Chem, 2025).
Converted amounts (≈) assume the structure as drawn.

Key:
Pichia kudriavzevii [1] = assay: Fungicidal activity against Candida krusei AS 2.1045 assessed as concentration of colonies (< 5) measured after 48 hrs incubation; assay type: functional
[2] = Cytotoxicity against human HUVEC cells measured after 72 hrs by MTT assay; assay type: toxicity, cell-based
Cryptococcus neoformans [3] = assay: Antifungal activity against Cryptococcus neoformans CGMCC 2.3161 assessed as reduction in ergosterol at 0.0125 ug/ml measured after 18 hrs incubation by gas chromatography-mass spectrometry (GCMS) analysis (reference value: 94.48%); assay type: functional; set-up: scale not given: the % may be the effect or the level left; conditions: dose 0.0125 µg/ml
Candida albicans [4] = assay: Antifungal activity against Candida albicans CPCC 400616 assessed as inhibition of visible growth; assay type: functional
Cryptococcus neoformans [5] = assay: Fungicidal index, ratio of MFC for fungicidal activity against Cryptococcus neoformans CGMCC 2.3161 to MIC80 for antifungal activity against Cryptococcus neoformans CGMCC 2.3161; assay type: functional
Pichia kudriavzevii [6] = assay: Antifungal activity against Candida krusei AS 2.1045 assessed as inhibition of visible growth; assay type: functional
Cryptococcus neoformans [7] = assay: Antifungal activity against Cryptococcus neoformans CGMCC 2.3161 assessed as inhibition of visible growth; assay type: functional
Aspergillus fumigatus = assay: Antifungal activity against Aspergillus fumigatus CGMCC 3.7795 assessed as inhibition of visible growth; assay type: functional
[8] = Subacute toxicity in ICR mouse assessed as change in body weight at 100 mg/kg, oral gavage for 14 consecutive days; assay type: organism-based; conditions: in vivo, 336 h, time 14 day
[9] = Selectivity ratio, ratio of IC50 for cytotoxicity against human SH-SY5Y cells to MIC80 for antifungal activity against Candida albicans SC 5314; assay type: toxicity, cell-based
[10] = Selectivity ratio, ratio of IC50 for cytotoxicity against human SH-SY5Y cells to MIC80 for antifungal activity against Candida parapsilosis GIM 2.190; assay type: toxicity, cell-based
Cryptococcus neoformans [11] = assay: Antifungal activity against Cryptococcus neoformans CGMCC 2.3161 assessed as reduction in Eburicol at 0.125 ug/ml measured after 18 hrs incubation by gas chromatography-mass spectrometry (GCMS) analysis; assay type: functional; set-up: scale not given: the % may be the effect or the level left; conditions: dose 0.125 µg/ml
[12] = AUC (0 to infinity) in Sprague-Dawley rat at 10 mg/kg, po by LC-MS/MS analysis; assay type: ADME, organism-based; conditions: in vivo
Cryptococcus neoformans [13] = assay: Fungicidal activity against Cryptococcus neoformans CGMCC 2.3161 assessed as concentration of colonies (< 5) measured after 48 hrs incubation; assay type: functional
[14] = (§1) Selectivity ratio, ratio of IC50 for cytotoxicity against human SH-SY5Y cells to MIC80 for antifungal activity against Candida albicans CPCC 400616; assay type: toxicity, cell-based
[15] = Toxicity in ICR mouse assessed as structural alteration in liver at 500 mg/kg, po single dose measured for 7 days by hematoxylin-eosin (H/E) staining analysis; assay type: organism-based; conditions: in vivo, 168 h, time 7 day
Cryptococcus neoformans [16] = assay: Antifungal activity against Cryptococcus neoformans CGMCC 2.3161 assessed as reduction in Lanosterol at 0.0125 ug/ml measured after 18 hrs incubation by gas chromatography-mass spectrometry (GCMS) analysis; assay type: functional; set-up: scale not given: the % may be the effect or the level left; conditions: dose 0.0125 µg/ml
Cytochrome P450 2D6 = Cytochrome P450 2D6 (Homo sapiens, UniProt P10635); assay: Inhibition of CYP2D6 in human liver microsomes using dextromethorphan as substrate measured after 10 mins by LC/MS/MS analysis; assay type: ADME, Microsome
Sequence of Cytochrome P450 2D6 (P10635 whole entry): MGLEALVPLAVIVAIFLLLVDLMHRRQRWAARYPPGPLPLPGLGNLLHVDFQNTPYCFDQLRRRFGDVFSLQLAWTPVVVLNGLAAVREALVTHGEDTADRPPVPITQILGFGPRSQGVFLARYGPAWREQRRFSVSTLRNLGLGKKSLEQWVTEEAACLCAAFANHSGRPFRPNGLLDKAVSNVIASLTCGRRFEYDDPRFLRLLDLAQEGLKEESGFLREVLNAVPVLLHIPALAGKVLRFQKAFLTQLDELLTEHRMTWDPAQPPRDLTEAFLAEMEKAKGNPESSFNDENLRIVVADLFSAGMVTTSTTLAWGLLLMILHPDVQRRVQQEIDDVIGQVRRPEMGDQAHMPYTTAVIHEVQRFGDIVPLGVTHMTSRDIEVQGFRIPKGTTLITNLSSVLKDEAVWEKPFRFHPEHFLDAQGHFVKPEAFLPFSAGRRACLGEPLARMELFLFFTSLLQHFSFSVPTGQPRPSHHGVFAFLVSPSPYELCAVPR

[17] = Selectivity ratio, ratio of IC50 for cytotoxicity against human SH-SY5Y cells to MIC80 for antifungal activity against Candida tropicalis CGMCC 2.3739; assay type: toxicity, cell-based
Nakaseomyces glabratus = assay: Inhibition of biofilm formation in clinical isolate Candida glabrata assessed as inhibition of metabolic activity of biofilm measured after 24 hrs by XTT assay; assay type: functional
Cryptococcus neoformans [18] = assay: Antifungal activity against Cryptococcus neoformans CGMCC 2.3161 assessed as reduction in 14alpha-methylsterols at 0.0125 ug/ml measured after 18 hrs incubation by gas chromatography-mass spectrometry (GCMS) analysis (reference value: 2.32%); assay type: functional; set-up: scale not given: the % may be the effect or the level left; conditions: dose 0.0125 µg/ml
[19] = MRT (0 to infinity) in Sprague-Dawley rat at 3 mg/kg, iv by LC-MS/MS analysis; assay type: ADME, organism-based; conditions: in vivo
[20] = Metabolic stability in human liver microsomes assessed as half life by LC-MS/MS analysis; assay type: ADME, Microsome; conditions: liver microsomes
Candida albicans [21] = assay: Antifungal activity against Candida albicans SC5314 assessed as reduction in Lanosterol at 0.05 ug/ml measured after 18 hrs incubation by gas chromatography-mass spectrometry (GCMS) analysis; assay type: functional; set-up: scale not given: the % may be the effect or the level left; conditions: dose 0.05 µg/ml
[22] = Metabolic stability in human liver microsomes assessed as compound remaining measured up to 60 mins by LC-MS/MS analysis; assay type: ADME, Microsome; conditions: liver microsomes, read-out: Activity
Cryptococcus neoformans [23] = assay: Antifungal activity against Cryptococcus neoformans CGMCC 2.3161 assessed as reduction in 14alpha-methylsterols at 0.125 ug/ml measured after 18 hrs incubation by gas chromatography-mass spectrometry (GCMS) analysis (reference value: 2.32%); assay type: functional; set-up: scale not given: the % may be the effect or the level left; conditions: dose 0.125 µg/ml
Candida albicans [24] = assay: Antifungal activity against Candida albicans SC5314 assessed as reduction in other sterol at 0.05 ug/ml measured after 18 hrs incubation by gas chromatography-mass spectrometry (GCMS) analysis (reference value: 2.59%); assay type: functional; set-up: scale not given: the % may be the effect or the level left; conditions: dose 0.05 µg/ml
[25] = Half life in Sprague-Dawley rat at 10 mg/kg, po by LC-MS/MS analysis; assay type: ADME, organism-based; conditions: in vivo
[26] = MRT (0 to infinity) in Sprague-Dawley rat at 10 mg/kg, po by LC-MS/MS analysis; assay type: ADME, organism-based; conditions: in vivo
Mus musculus = assay: In vivo antifungal activity against Candida albicans SC5314 infected in ICR mouse model assessed as mouse survival at 5 mg/kg, oral gavage measured for 21 days post infection; assay type: functional; conditions: 504 h, time 21 day
[27] = Cmax in Sprague-Dawley rat at 3 mg/kg, iv by LC-MS/MS analysis; assay type: ADME, organism-based; conditions: in vivo
Cryptococcus neoformans [28] = assay: Antifungal activity against Cryptococcus neoformans CGMCC 2.3161 assessed as reduction in other sterol at 0.125 ug/ml measured after 18 hrs incubation by gas chromatography-mass spectrometry (GCMS) analysis (reference value: 2.20%); assay type: functional; set-up: scale not given: the % may be the effect or the level left; conditions: dose 0.125 µg/ml
[29] = Half life in Sprague-Dawley rat at 3 mg/kg, iv by LC-MS/MS analysis; assay type: ADME, organism-based; conditions: in vivo
[30] = Selectivity ratio, ratio of IC50 for cytotoxicity against human SH-SY5Y cells to MIC80 for antifungal activity against Clinical isolate Candida glabrata; assay type: toxicity, cell-based
Cytochrome P450 2C19 = Cytochrome P450 2C19 (Homo sapiens, UniProt P33261); assay: Inhibition of CYP2C19 in human liver microsomes using S-mephenytoin as substrate measured after 10 mins by LC/MS/MS analysis; assay type: ADME, Microsome
Sequence of Cytochrome P450 2C19 (P33261 whole entry): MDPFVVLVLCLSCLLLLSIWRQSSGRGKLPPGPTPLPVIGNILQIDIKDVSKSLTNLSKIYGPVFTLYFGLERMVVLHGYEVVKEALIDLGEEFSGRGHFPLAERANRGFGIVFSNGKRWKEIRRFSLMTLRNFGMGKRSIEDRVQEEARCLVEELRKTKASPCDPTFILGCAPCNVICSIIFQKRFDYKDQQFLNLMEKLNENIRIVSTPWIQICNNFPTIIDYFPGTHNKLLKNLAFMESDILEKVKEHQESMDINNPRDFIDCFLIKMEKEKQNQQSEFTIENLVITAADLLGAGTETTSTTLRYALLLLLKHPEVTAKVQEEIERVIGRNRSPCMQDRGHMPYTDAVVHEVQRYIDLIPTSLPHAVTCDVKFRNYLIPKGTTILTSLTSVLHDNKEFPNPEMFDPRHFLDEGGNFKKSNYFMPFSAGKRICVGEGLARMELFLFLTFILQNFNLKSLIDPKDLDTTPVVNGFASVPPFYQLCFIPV

Cryptococcus neoformans [31] = assay: Antifungal activity against Cryptococcus neoformans CGMCC 2.3161 assessed as reduction in Obtusifoliol at 0.125 ug/ml measured after 18 hrs incubation by gas chromatography-mass spectrometry (GCMS) analysis; assay type: functional; set-up: scale not given: the % may be the effect or the level left; conditions: dose 0.125 µg/ml
[32] = as §1; assay type: toxicity, cell-based; remark: listed apart in the source
Cytochrome P450 2C9 = Cytochrome P450 2C9 (Homo sapiens, UniProt P11712); assay: Inhibition of CYP2C9 in human liver microsomes using diclofenac as substrate measured after 10 mins by LC/MS/MS analysis; assay type: ADME, Microsome
Sequence of Cytochrome P450 2C9 (P11712 whole entry): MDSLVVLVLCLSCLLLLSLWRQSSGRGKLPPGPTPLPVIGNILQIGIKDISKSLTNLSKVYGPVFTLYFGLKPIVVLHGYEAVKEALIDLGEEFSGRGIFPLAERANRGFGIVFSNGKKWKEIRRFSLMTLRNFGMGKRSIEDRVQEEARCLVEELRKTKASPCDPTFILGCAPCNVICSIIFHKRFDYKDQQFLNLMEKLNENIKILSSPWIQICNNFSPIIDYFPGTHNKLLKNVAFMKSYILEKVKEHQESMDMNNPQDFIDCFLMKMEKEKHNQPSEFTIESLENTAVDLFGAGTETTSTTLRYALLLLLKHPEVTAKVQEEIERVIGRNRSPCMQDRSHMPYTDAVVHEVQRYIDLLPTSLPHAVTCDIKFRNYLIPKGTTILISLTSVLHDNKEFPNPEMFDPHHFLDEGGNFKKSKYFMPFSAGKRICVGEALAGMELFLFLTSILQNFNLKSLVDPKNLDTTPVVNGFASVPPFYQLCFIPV

Candida albicans [33] = assay: Antifungal activity against Candida albicans SC 5314 assessed as inhibition of visible growth; assay type: functional

SMILES: [2H]C([2H])([2H])N(Cc1ccc(-c2ccc(OC(F)(F)F)cc2)cc1)[C@H](C)[C@](O)(Cn1cncn1)c1ccc(F)cc1F
- MFC (Pichia kudriavzevii [1]): 0.125 µg/mL (≈ 0.233 µM)
- IC50 at 72 h [2]: 23500 nM
- Activity (Cryptococcus neoformans [3]): 62.56%
- MIC80 (Candida albicans [4]): 0.006 µg/mL (≈ 0.0112 µM)
- Activity_index (Cryptococcus neoformans [5]): 5
- MIC80 (Pichia kudriavzevii [6]): 0.012 µg/mL (≈ 0.0224 µM)
- MIC80 (Cryptococcus neoformans [7]): 0.012 µg/mL (≈ 0.0224 µM)
- MIC80 (Aspergillus fumigatus): 0.025 µg/mL (≈ 0.0467 µM)
- Activity [8]: Non-toxic
- selectivity ratio [9]: > 100
- selectivity ratio [10]: > 100
- Activity (Cryptococcus neoformans [11]): 47.42%
- AUC(0-inf) [12]: 4830 ng·h/mL
- MFC (Cryptococcus neoformans [13]): 0.062 µg/mL (≈ 0.116 µM)
- selectivity ratio [14]: > 100
- Activity [15]: Non-toxic
- Activity (Cryptococcus neoformans [16]): 8.58%
- IC50 (Cytochrome P450 2D6): > 10000 nM
- selectivity ratio [17]: > 100
- MIC50 (Nakaseomyces glabratus): 0.062 µg/mL (≈ 0.116 µM)
- Activity (Cryptococcus neoformans [18]): 3.13%
- MRT inf [19]: 2.32 h
- half-life [20]: 0.67 h
- Activity (Candida albicans [21]): 21.92%
- remaining at 1 h [22]: 34.4%
- Activity (Cryptococcus neoformans [23]): 3.21%
- Activity (Candida albicans [24]): 3.13%
- half-life [25]: 4.42 h
- MRT inf [26]: 6.18 h
- survival at 5 mg/kg (Mus musculus): 100%
- Cmax [27]: 2290 ng/mL
- Activity (Cryptococcus neoformans [28]): 11.5%
- t1/2 [29]: 6.79 h
- selectivity ratio [30]: > 100
- IC50 (Cytochrome P450 2C19): 1710 nM
- Activity (Cryptococcus neoformans [31]): 26.05%
- selectivity ratio [32]: > 100
- IC50 (Cytochrome P450 2C9): 1760 nM
- MIC80 (Candida albicans [33]): 0.006 µg/mL (≈ 0.0112 µM)
